Patent publication EP1202975B1, “SUBSTITUTED POLYCYCLIC ARYL AND HETEROARYL PYRAZINONES USEFUL FOR SELECTIVE INHIBITION OF THE COAGULATION CASCADE” (Pharmacia Corporation, priority 1999, dated 2000)
Like-named read-outs stand apart in the source and are kept apart here. Values belong to the molecule of their own block, whether it stands above or below them.

How the values were obtained:
TF-VIIa = molecular target: T1, TF-VIIa (Homo sapiens, UniProt P08709); experiment: TF-VIIa Assay; format: biochemical
T1 construct: 2nM recombinant human factor VIIa; purchased American Diagnostica, Greenwich CT; host or cells: soluble TF made in house in E. coli
T1 sequence (P08709 213-466 limits assumed): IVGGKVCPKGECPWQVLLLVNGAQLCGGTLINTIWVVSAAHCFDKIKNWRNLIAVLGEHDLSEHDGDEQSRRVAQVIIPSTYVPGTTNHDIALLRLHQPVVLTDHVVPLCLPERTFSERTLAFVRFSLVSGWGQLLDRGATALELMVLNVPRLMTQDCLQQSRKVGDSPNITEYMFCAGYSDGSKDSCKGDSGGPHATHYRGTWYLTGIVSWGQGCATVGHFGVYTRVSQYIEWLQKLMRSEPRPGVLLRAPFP
T1 sequence (P08709 61-212 limits assumed): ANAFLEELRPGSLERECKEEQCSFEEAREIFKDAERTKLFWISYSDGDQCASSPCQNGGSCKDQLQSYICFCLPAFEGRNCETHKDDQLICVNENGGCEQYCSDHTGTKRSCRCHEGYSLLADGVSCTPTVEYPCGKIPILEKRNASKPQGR
T1 sequence (P13726 33-251 partner limits assumed): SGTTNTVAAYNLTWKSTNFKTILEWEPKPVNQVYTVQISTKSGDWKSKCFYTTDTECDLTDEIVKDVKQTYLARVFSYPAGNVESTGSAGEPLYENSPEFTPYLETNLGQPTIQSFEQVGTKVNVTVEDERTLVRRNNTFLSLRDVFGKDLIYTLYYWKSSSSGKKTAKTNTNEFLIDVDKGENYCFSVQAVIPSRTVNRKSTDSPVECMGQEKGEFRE

Human factor Xa = Human factor Xa (Homo sapiens, UniProt P00742); experiment: Xa Assay; conditions: for IC50 or % Inhibition Factor Xa (30 µM): % inhibition at 30 µM
Chain of Human factor Xa (P00742 235-488 limits assumed): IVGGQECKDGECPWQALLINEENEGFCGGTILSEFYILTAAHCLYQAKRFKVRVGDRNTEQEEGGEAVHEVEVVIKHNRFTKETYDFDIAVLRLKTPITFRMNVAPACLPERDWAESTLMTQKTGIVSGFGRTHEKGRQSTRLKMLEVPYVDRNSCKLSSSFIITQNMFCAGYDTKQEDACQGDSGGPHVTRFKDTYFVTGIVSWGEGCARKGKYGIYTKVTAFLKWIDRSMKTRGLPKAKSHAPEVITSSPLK
Chain of Human factor Xa (P00742 41-179 limits assumed): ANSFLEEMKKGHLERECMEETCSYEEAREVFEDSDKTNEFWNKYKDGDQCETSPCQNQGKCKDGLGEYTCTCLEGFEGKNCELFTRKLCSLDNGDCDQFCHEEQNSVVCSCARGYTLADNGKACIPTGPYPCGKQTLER

[1] = read-out: IC50 or % Inhibition TF-VIIa (30 µM); cells given as a plain number (IC50)
[2] = read-out: IC50 or % Inhibition Factor Xa (30 µM), cells given as a plain number (IC50)
[3] = cells given as a plain number (IC50); read-out: IC50 or % Inhibition TF-VIIa (30 µM)

Structure (SMILES): C[C@H](Nc1nc(Cl)c(-c2cccc(N)c2)n(CC(=O)NCc2ccc(C(=N)N)cc2)c1=O)C1CCCCC1 [1526-29]
IC50 (TF-VIIa; [1]): 120 nM
IC50 (Human factor Xa; [2]): > 30000 nM

Structure (SMILES): N=C(N)c1ccc(CNC(=O)Cn2c(-c3cccc(N)c3)c(Cl)nc(NC3CCC3)c2=O)c(F)c1 [1543-39]
IC50 (TF-VIIa; cells without % sign: IC50; read-out: IC50 or % Inhibition TF-VIIa (30 µM)): 40 nM
IC50 or % Inhibition Factor Xa (30 µM) (Human factor Xa): 14%

Structure (SMILES): N=C(N)c1ccc(CNC(=O)Cn2c(Cc3ccccc3)cnc(NCCc3ccccc3)c2=O)cc1 [Example 2]
IC50 (TF-VIIa; [3]): 5000 nM
IC50 (Human factor Xa): > 100000 nM

Structure (SMILES): N=C(N)NCCC[C@H](NC(=O)Cn1c(CCc2ccccc2)c(Cl)nc(NCCc2ccccc2)c1=O)C(=O)c1nccs1 [Example 5]
IC50 (TF-VIIa; [3]): 7000 nM
IC50 (Human factor Xa): 4000 nM

Structure (SMILES): N=C(N)NCCC[C@H](NC(=O)Cn1c(CCc2ccccc2)cnc(NCCc2ccccc2)c1=O)C(=O)c1nccs1 [Example 8]
IC50 (TF-VIIa; [3]): 3000 nM
IC50 (Human factor Xa): 1000 nM

Structure (SMILES): N=C(N)NCCCNC(=O)Cn1c(-c2ccccc2)cnc(NCCc2ccccc2)c1=O [Example 11]
IC50 (TF-VIIa; [3]): 91000 nM
IC50 (Human factor Xa): > 100000 nM

Structure (SMILES): COc1ccc(-c2cnc(NCCc3ccccc3)c(=O)n2CC(=O)NCCCCNC(=N)N)cc1 [Example 14]
IC50 (TF-VIIa; [3]): > 100000 nM
IC50 (Human factor Xa): > 100000 nM

Structure (SMILES): N=C(N)NCCCCNC(=O)Cn1c(-c2ccc3c(c2)OCO3)cnc(NCCc2ccccc2)c1=O [Example 16]
IC50 (TF-VIIa; [3]): > 100000 nM
IC50 (Human factor Xa): > 100000 nM

Structure (SMILES): N=C(N)c1ccc(CNC(=O)Cn2c(-c3ccccc3)c(Cl)nc(NCCc3ccncc3)c2=O)cc1 [Example 19]
IC50 (TF-VIIa; [3]): 800 nM
IC50 or % Inhibition Factor Xa (30 µM) (Human factor Xa): 22%@30

Structure (SMILES): N=C(N)CCNc1nc(Cl)c(-c2ccccc2)n(CC(=O)NCc2ccc(C(=N)N)cc2)c1=O [Example 50]
IC50 (TF-VIIa; [3]): 500 nM
IC50 or % Inhibition Factor Xa (30 µM) (Human factor Xa): 39%

Structure (SMILES): N=C(N)c1ccc(CNC(=O)Cn2c(-c3ccccc3)c(Cl)nc(NCc3ccc(C(=N)N)cc3)c2=O)cc1 [Example 51]
IC50 (TF-VIIa; [3]): 650 nM
IC50 (Human factor Xa): 9680 nM

Structure (SMILES): N=C(N)c1ccc(CNC(=O)Cn2c(-c3ccccc3)c(Cl)nc(NCc3cccc(C(=N)N)c3)c2=O)cc1 [Example 52]
IC50 (TF-VIIa; [3]): 590 nM
IC50 (Human factor Xa): 24000 nM

Structure (SMILES): CC(C)Nc1nc(Cl)c(-c2cccc(N)c2)n(CC(=O)NCc2ccc(C(=N)N)s2)c1=O [Example 55]
IC50 (TF-VIIa; [3]): 150 nM
IC50 or % Inhibition Factor Xa (30 µM) (Human factor Xa): 0%

Structure (SMILES): CN(C)c1cccc(-c2c(Cl)nc(NCCc3ccccc3)c(=O)n2CC(=O)NCc2ccc(C(=N)N)cc2)c1 [Example 103]
IC50 (TF-VIIa; [3]): 300 nM
IC50 or % Inhibition Factor Xa (30 µM) (Human factor Xa): 11%@30

Structure (SMILES): CNc1cccc(-c2c(Cl)nc(NC(C)C)c(=O)n2CC(=O)NCc2ccc(C(=N)N)cc2)c1 [Example 104]
IC50 (TF-VIIa; [3]): 1200 nM
IC50 (Human factor Xa): > 30000 nM

Continued, values first:

IC50 (TF-VIIa; [1]): 80 nM
IC50 (Human factor Xa; [2]): > 30000 nM
Structure (SMILES): N=C(N)c1ccc(CNC(=O)Cn2c(-c3cccc(N)c3)c(Cl)nc(N[C@@H]3CC4CCC3C4)c2=O)cc1 (stereo partly drawn) [1526-30]

IC50 (TF-VIIa; [1]): 260 nM
IC50 (Human factor Xa; [2]): > 30000 nM
Structure (SMILES): N=C(N)c1ccc(CNC(=O)Cn2c(-c3cccc(N)c3)c(Cl)nc(NC[C@@H]3CCCO3)c2=O)cc1 [1526-33]

IC50 (TF-VIIa; [3]): 200 nM
IC50 (Human factor Xa): 1000 nM
Structure (SMILES): N=C(N)NCCC[C@H](NC(=O)Cn1c(-c2ccccc2)c(Cl)nc(NCCc2ccccc2)c1=O)C(=O)c1nccs1 [Example 3]

IC50 (TF-VIIa; [3]): 100 nM
IC50 (Human factor Xa): 1000 nM
Structure (SMILES): N=C(N)NCCC[C@H](NC(=O)Cn1c(-c2ccccc2)cnc(NCCc2ccccc2)c1=O)C(=O)c1nccs1 [Example 6]

IC50 (TF-VIIa; [3]): 200 nM
IC50 (Human factor Xa): 3000 nM
Structure (SMILES): N=C(N)NCCC[C@H](NC(=O)Cn1c(Cc2ccccc2)cnc(NCCc2ccccc2)c1=O)C(=O)c1nccs1 [Example 7]

IC50 (TF-VIIa; [3]): > 100000 nM
IC50 (Human factor Xa): > 100000 nM
Structure (SMILES): N=C(N)NCCCCNC(=O)Cn1c(-c2ccccc2)cnc(NCCc2ccccc2)c1=O [Example 12]

IC50 (TF-VIIa; [3]): > 100000 nM
IC50 (Human factor Xa): > 100000 nM
Structure (SMILES): N=C(N)NCCCCCNC(=O)Cn1c(-c2ccccc2)cnc(NCCc2ccccc2)c1=O [Example 13]

IC50 (TF-VIIa; [3]): 710 nM
IC50 or % Inhibition Factor Xa (30 µM) (Human factor Xa): 41%
Structure (SMILES): CC(C)Nc1nc(Cl)c(-c2cccc(C#N)c2)n(CC(=O)NCc2ccc(C(=N)N)cc2)c1=O [Example 17]

IC50 or % Inhibition TF-VIIa (30 µM) (TF-VIIa; % inhibition at 30 µM): 8%@30
IC50 or % Inhibition Factor Xa (30 µM) (Human factor Xa): 21%@30
Structure (SMILES): N=C(N)c1ccc(CNC(=O)Cn2c(-c3ccc(-c4ccccc4)cc3)c(Cl)nc(NCCc3cccnc3)c2=O)cc1 [Example 21]

IC50 or % Inhibition TF-VIIa (30 µM) (TF-VIIa; % inhibition at 30 µM): 0%@30
IC50 or % Inhibition Factor Xa (30 µM) (Human factor Xa): 13%@30
Structure (SMILES): N=C(N)c1ccc(CNC(=O)Cn2c(-c3ccc(-c4ccccc4)cc3)c(Cl)nc(NCCc3ccc(Cl)cc3)c2=O)cc1 [Example 22]

IC50 (TF-VIIa; [3]): 1700 nM
IC50 or % Inhibition Factor Xa (30 µM) (Human factor Xa): 38%@30
Structure (SMILES): N=C(N)c1ccc(CNC(=O)Cn2c(-c3cccc(Cl)c3)c(Cl)nc(NCc3ccccc3)c2=O)cc1 [Example 23]

IC50 (TF-VIIa; [3]): 660 nM
IC50 (Human factor Xa): 10600 nM
Structure (SMILES): N=C(N)NCCCNc1nc(Cl)c(-c2ccccc2)n(CC(=O)NCc2ccc(C(=N)N)cc2)c1=O [Example 47]

IC50 (TF-VIIa; [3]): 570 nM
IC50 or % Inhibition Factor Xa (30 µM) (Human factor Xa): 20%
Structure (SMILES): N=C(N)NCCNc1nc(Cl)c(-c2ccccc2)n(CC(=O)NCc2ccc(C(=N)N)cc2)c1=O [Example 48]

IC50 (TF-VIIa; [3]): 570 nM
IC50 (Human factor Xa): 28900 nM
Structure (SMILES): N=C(N)NCCCCNc1nc(Cl)c(-c2ccccc2)n(CC(=O)NCc2ccc(C(=N)N)cc2)c1=O [Example 49]

IC50 (TF-VIIa; [3]): 300 nM
IC50 or % Inhibition Factor Xa (30 µM) (Human factor Xa): 7%
Structure (SMILES): N#CCCNc1nc(Cl)c(-c2ccccc2)n(CC(=O)NCc2ccc(C(=N)N)cc2)c1=O [Example 53]
